Reference: US7994198B2, “Piperidinetriol derivatives as inhibitors of glycosylceramidsynthase” (Actelion Pharmaceuticals Ltd., priority 2002, dated 2011)
Read-outs that look alike come from different tables or passages of the source.

Columns and labels:
[1] = target: T1, non-lysosomal-β-glucocerebrosidase (Homo sapiens, UniProt Q9HCG7); test: Inhibition of non-lysosomal-β-glucocerebrosidase (whole cell extracts of MCF7); assay type: biochemical
T1 construct: endogenous in cells; host or cells: MCF7 whole cell extracts
T1 sequence (Q9HCG7 1-927): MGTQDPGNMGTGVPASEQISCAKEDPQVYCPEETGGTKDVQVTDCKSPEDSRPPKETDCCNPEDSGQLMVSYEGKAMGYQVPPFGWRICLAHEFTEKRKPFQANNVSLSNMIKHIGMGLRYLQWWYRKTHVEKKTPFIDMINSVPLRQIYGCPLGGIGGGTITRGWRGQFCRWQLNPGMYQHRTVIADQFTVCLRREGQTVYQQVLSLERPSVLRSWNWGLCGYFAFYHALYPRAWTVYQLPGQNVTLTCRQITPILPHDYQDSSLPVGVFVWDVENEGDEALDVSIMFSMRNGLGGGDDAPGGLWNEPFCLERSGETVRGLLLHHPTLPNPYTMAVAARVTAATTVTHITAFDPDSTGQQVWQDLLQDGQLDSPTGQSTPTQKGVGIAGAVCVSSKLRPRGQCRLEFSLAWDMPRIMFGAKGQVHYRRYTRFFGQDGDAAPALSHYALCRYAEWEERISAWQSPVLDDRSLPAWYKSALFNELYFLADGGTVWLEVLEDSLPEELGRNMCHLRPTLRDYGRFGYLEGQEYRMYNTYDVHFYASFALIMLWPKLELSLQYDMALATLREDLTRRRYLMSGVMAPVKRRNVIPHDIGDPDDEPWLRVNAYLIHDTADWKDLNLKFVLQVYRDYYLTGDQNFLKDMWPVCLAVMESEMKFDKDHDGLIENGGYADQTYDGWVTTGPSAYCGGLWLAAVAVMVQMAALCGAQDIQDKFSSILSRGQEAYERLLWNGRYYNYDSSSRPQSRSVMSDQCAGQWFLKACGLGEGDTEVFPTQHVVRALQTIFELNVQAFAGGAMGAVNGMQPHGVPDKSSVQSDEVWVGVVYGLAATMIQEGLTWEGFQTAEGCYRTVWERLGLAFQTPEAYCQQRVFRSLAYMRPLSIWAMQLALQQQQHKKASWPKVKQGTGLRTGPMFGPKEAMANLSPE
Experimental: The assay for inhibition of non-lysosomal-β-glucocerebrosidase was essentially carried out as described in Overkleeft, H. S. et al., J. Biol. Chem., (1998) 273, 26522-26527 with the following differences: whole cell extracts of MCF7 (a human breast carcinoma cell line) was used as the source of the enzyme instead of splenic membrane suspensions; 5mM instead of 3Mm, 4-MU β-glucoside was used as substrate and 0.2M citrate/phosphate (pH 5.8) was used instead of McIlvaine buffer.

human GCS [2] = target: T2, human GCS (Homo sapiens, UniProt Q16739); test: Inhibition of GCS (human recombinant GCS expressed in insect cells); assay type: biochemical; design: made in house; host or cells: insect cells
T2 sequence (Q16739 1-394): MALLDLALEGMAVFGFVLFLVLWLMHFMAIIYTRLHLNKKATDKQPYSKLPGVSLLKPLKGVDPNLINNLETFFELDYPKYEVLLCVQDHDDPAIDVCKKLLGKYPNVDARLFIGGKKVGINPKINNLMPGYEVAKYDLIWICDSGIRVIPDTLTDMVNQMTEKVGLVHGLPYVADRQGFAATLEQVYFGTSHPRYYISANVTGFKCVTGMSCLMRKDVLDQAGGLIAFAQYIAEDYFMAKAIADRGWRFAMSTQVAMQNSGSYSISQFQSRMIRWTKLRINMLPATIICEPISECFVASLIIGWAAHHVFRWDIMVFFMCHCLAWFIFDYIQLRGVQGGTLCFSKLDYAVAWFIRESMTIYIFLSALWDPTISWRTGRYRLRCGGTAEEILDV

glycolipid biosynthesis = conditions: as disclosed in EP-A-0698012; cited from earlier work
human GCS [3] = target: T2, human GCS; test: Cell-based IC50 for GCS inhibition by measuring glucosylceramide (GlcCer) depletion in MCF-7 cells; conditions: MCF-7 cells cultured 5-7 days; GlcCer depletion by HPTLC; read-out: Inhibition of GCS Cellular-based (IC50 μM)

| IC50 [1] [µM] | IC50 (human GCS [2]) [µM] | SMILES | Inhibition of glycolipid biosynthesis (glycolipid biosynthesis) | further results |
| --- | --- | --- | --- | --- |
| 14.9 | 7.2 | C[C@H](NC(=O)c1ccc(CN2C[C@H](O)[C@@H](O)[C@@H](O)[C@@H]2CO)cc1)c1ccccc1 [Example 3, Benzamide, N-[1-(S)-(phenyl)ethyl]-4-[[(2S,3S,4R,5S)-3,4,5-trihydroxy-2-(hydroxymethyl)-1-piperidinyl]methyl]-,] | – | – |
| – | – | CCCCN1C[C@H](NC(C)=O)[C@@H](O)[C@H](O)[C@H]1CO [NB-NAG] | do not act as inhibitors of glycolipid biosynthesis | – |
| – | – | CCCCN1C[C@@H](O)[C@H](O)[C@H](O)[C@@H]1C [NB-DFJ] | do not act as inhibitors of glycolipid biosynthesis | – |
| – | – | C[C@@H](NC(=O)c1ccc(CN2C[C@H](O)[C@@H](O)[C@@H](O)[C@@H]2CO)cc1)c1ccccc1 [Example 6, Benzamide, N-[1-(R)-(phenyl)ethyl]4-[[(2S,3S,4R,5S)-3,4,5-trihydroxy-2-(hydroxymethyl)-1-piperidinyl]methyl]-,] | – | IC50 (human GCS [3]): 1 µM |
| – | 2.2 | O=C(NCc1ccc(F)cc1)c1ccc(CN2C[C@H](O)[C@@H](O)[C@@H](O)[C@@H]2CO)cc1 [Example 1, Benzamide, N-[(4-fluorophenyl)methyl]4-[[(2S,3S,4R,5S)-3,4,5-trihydroxy-2-(hydroxymethyl)-1-piperidinyl]methyl]-,] | – | – |
| – | – | CCCCN1C[C@@H](O)[C@@H](O)[C@H](O)[C@H]1CO [NB-DMJ] | do not act as inhibitors of glycolipid biosynthesis | – |
| 9.4 | 0.66 | OC[C@H]1[C@H](O)[C@H](O)[C@@H](O)CN1Cc1ccc(OCc2ccccc2)cc1 [Example 2, 3,4,5-Piperidinetriol, 2-(hydroxymethyl)-1-[[4-(phenylmethoxy)phenyl]methyl]-, (2S,3S,4R,5S)] | – | IC50 (human GCS [3]): < 0.1 µM |
| > 100 | 4.7 | C[C@@H](NC(=O)c1ccc(CN2C[C@H](O)[C@@H](O)[C@@H](O)[C@@H]2CO)cc1)c1ccc(F)cc1 [Example 7, Benzamide, N-[1-(R)-(4-fluorophenyl)ethyl]-4-[[(2S,3S,4R,5S)-3,4,5-trihydroxy-2-(hydroxymethyl)-1-piperidinyl]methyl]-,] | – | – |

| SMILES | IC50 [1] [µM] | IC50 (human GCS [2]) [µM] | Inhibition of glycolipid biosynthesis (glycolipid biosynthesis) | further results |
| --- | --- | --- | --- | --- |
| CCCN(CCC)c1ccc(CN2C[C@H](O)[C@@H](O)[C@@H](O)[C@@H]2CO)cc1C#N [Example 4, 3,4,5-Piperidinetriol, 1-[(3-cyano-4-(dipropylamino)phenyl)methyl]-2-(hydroxymethyl), (2S,3S,4R,5S)] | – | 0.62 | – | IC50 ([1]; MCF7 whole cell extract, 5mM 4-MU β-glucoside, citrate/phosphate pH 5.8, read-out: Inhibition of non-lysosomal-β-glucocerebrosidase (IC50 μM)): 1.93 µM |
